# Patent US11840530B2, “Selective EP4 receptor antagonistic substance for treatment of cancer” (AskAt Inc., priority 2009, dated 2023)
# Tests used:
# breast cancer cells = conditions: non-patent literature 5; cited from earlier work
# [1] = tested on: gastric tumor of K19-Wnt1/C2mE mice; experiment: Spontaneous gastric cancer model mice, tumor size by X-ray CT; format: in vivo, mouse; conditions: for sizes of tumors by X-ray CT (relative mean tumor area, FIG. 3): per os 3 mg/kg and 30 mg/kg once a day for five weeks, vs vehicle
# Procedure: Among human gastric cancer patients, Wnt up-regulation is observed in 30% to 50%, and induction of COX-2 is observed in more than 70%. Therefore, the K19-Wnt1/C2mE is positioned as a mouse model which extrapolates human gastric cancer in terms of molecular mechanism (Nature Review Cancer, Volume 7, Pages 645-658, 2007).
# The experiment was conducted using five spontaneous gastric cancer model mice at 50 weeks old (K19-Wnt1/C2mE mice). The mice develop large tumors in stomach at 50 weeks old, and the size of tumor can be measured with X-ray CT. The sizes of tumors were measured with X-ray CT before administration and at week 1, week 2, and week 3 after administration, and the sizes of tumors were compared. Compound A was continuously administered at a dose of 100 mg/kg twice a day for three weeks. A methyl cellulose was used as a vehicle.
# Experiment was conducted using six gastric cancer model mice at 46 to 68 weeks old (K19-Wnt1/C2mE mice). Compound B was continuously administered per os at a dose of 3 mg/kg (n=2), 30 mg/kg (n=2) and vehicle control (n=2) once a day for five weeks. The measurements of tumor sizes were conducted in the same manner as example 1. It was confirmed by X-ray CT scanning that the sizes of tumors increased in a time-dependent manner during test period in two vehicle controls. […] In the FIG. 3, a relative value of the mean tumor area after treatment to that before treatment (0 w) set to 100 is shown with time. Solid square (▪) and solid diamond (♦) represent control model mice. Dotted triangle (▴) and dotted cross (X) represent model mice each administered compound B at a dose of 3 mg/kg. Solid star (*) and solid circle (●) represent model mice each administered compound B at a dose of 30 mg/kg.
# [2] = tested on: LL/2 (cell line derived from mouse lung cancer); experiment: LL/2 subcutaneously implanted to C57BL/6 mice, tumor weight; format: in vivo; conditions: vs vehicle
# Procedure: A cell line derived from mouse lung cancer, LL/2, was subcutaneously implanted to C57BL/6 mice. (According to the method described in Cancer Research. Volume 58, Pages 2583-2587, 1998, this model extrapolates the lung cancer development and growth.) When the mean tumor weight reached 100 mg, vehicle (n=10), compound B once a day at a dose of 0.3 mg/kg (n=10), or compound C twice a day at a dose of 10 mg/kg (n=10) was administered for 25 days. The tumor weight was calculated as (major axis)×(minor axis)^2×0.5 using the measured values. […] In FIG. 5, solid square (▪), solid triangle (▴), and solid circle (●) represent a group administered vehicle (control), a group administered compound B, and a group administered compound C, respectively.
# [3] = tested on: colon26 (cell line derived from mouse colon cancer); experiment: colon26 subcutaneously implanted to CD2F1 mice, tumor weight; format: in vivo; conditions: vs vehicle
# Procedure: A cell line derived from mouse colon cancer, colon26, was subcutaneously implanted to CD2F1 mice. (According to the method described in Int. J. Cancer, Volume 121, Pages 878-883, 2007, this model extrapolates the colon cancer development and growth in terms of molecular mechanism.) When the mean tumor weight reached 100 mg, vehicle (n=10), compound B once a day at a dose of 30 mg/kg (n=10), or compound C twice a day at a dose of 200 mg/kg (n=10) was administered for 20 days. The tumor weight was calculated as (major axis)×(minor axis)^2×0.5 using the measured values. […] In FIG. 4, solid square (▪), solid triangle (▴), and solid circle (●) represent a group administered vehicle (control), a group administered compound B, and a group administered compound C, respectively.
# [4] = tested on: colon cancer cell (HCA-7); conditions: non-patent literature 4; cited from earlier work
# [5] = tested on: azoxymethane-induced colon aberrant crypt foci; conditions: non-patent literature 6; cited from earlier work
# [6] = tested on: intestinal polyp in APC gene knockout mice; conditions: non-patent literature 6; cited from earlier work
smiles,measurement,setting,value
O=C(O)CC/C=C\CC[C@H]1[C@H](N2CCOCC2)C(=O)C[C@H]1OCc1ccc(-c2ccccc2)cc1 [AH23848],metastasis of breast cancer cells,breast cancer cells,metastasis suppression
"C[C@H](NC(=O)c1cc(Cl)ccc1Oc1ccc(F)cc1)c1ccc(C(=O)O)cc1 [Compound A, 4-((1S)-1-{[5-chloro-2-(4-fluorophenoxy)benzoyl]amino}ethyl)benzoic Acid]",histological analysis of excised tissues after the treatment,"[1]; 100 mg/kg twice a day for three weeks, visual observation",disappearance of irregular glandular branching in tumor epithelium
same,relative tumor volume compared with untreated mice (FIG. 2),"[1]; 100 mg/kg twice a day for three weeks, vs 55 to 60 week old untreated K19-Wnt1/C2mE mice (n=7)",tumor was shrunk effectively
same,tumor mass in CT images at three weeks post-administration,"[1]; 100 mg/kg twice a day, all the five mice",tumor mass almost completely disappeared
same,tumor size in the first week (X-ray CT),"[1]; 100 mg/kg twice a day, two individuals with particularly large tumor before administration",remarkable reductions of the tumor size
C[C@H](NC(=O)c1cc(Cl)cnc1Oc1cccc(F)c1)c1ccc(C(=O)O)cc1 [Compound B],"tumor size (calculated tumor weight, FIG. 5)",[2]; 0.3 mg/kg once a day for 25 days,Remarkable reductions of tumor size
same,"tumor size (calculated tumor weight, FIG. 4)",[3]; 30 mg/kg once a day for 20 days,Remarkable reductions of tumor size
same,"sizes of tumors by X-ray CT (relative mean tumor area, FIG. 3)",[1],reduced in a dose-dependent manner
same,tumor size by X-ray CT at a dose of 3 mg/kg,[1]; per os 3 mg/kg once a day for five weeks,effective reduction of tumor size
same,tumor lesions in autopsy,"[1]; per os once a day for five weeks, compared with vehicle control group",remarkable shrinkages of tumor lesions
"CCc1nc2c(C)nc(C)cc2n1-c1ccc(CCNC(=O)NS(=O)(=O)c2ccc(C)cc2)cc1 [Compound C, 3-[2-(4-{2-ethyl-4,6-dimethyl-1H-imidazo[4,5-c]pyridin-1-yl}phenyl)ethyl]-1-[(4-methylbenzene)sulfonyl]urea]","tumor size (calculated tumor weight, FIG. 5)",[2]; 10 mg/kg twice a day for 25 days,Remarkable reductions of tumor size
same,"tumor size (calculated tumor weight, FIG. 4)",[3]; 200 mg/kg twice a day for 20 days,Remarkable reductions of tumor size
same,"sizes of tumors by X-ray CT (relative mean tumor area, FIG. 3)",[1],tumor size dramatically reduced
"CCCCc1nn(-c2ccccc2C(F)(F)F)c(=O)n1Cc1ccc(-c2ccccc2S(=O)(=O)NC(=O)c2sccc2C)cc1 [L-161,982]",growth of colon cancer cell,[4],growth inhibition
CC(C(=O)Nc1ccccc1Cc1ccccc1C(=O)O)c1cccc2ccccc12 (centres unmarked) [ONO-AE2-227],formation of azoxymethane-induced colon aberrant crypt foci,[5],reduced formation
same,formation of intestinal polyp,[6],reduced formation of intestinal polyp
CC(C(=O)Nc1cc(C#N)ccc1CCCC(=O)O)c1ccc(F)c2ccccc12 (centres unmarked) [ONO-AE3-208],metastasis of breast cancer cells,breast cancer cells,metastasis suppression
